Results from ChEMBL document CHEMBL1201862, “PubChem BioAssay data set” (2004).
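How tested: cells in 96-well plates exposed to compound for 48 hours at five concentrations. Abbreviation: GI50, concentration required for 50% inhibition of growth.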 Calls of active or inactive are those of the source. No stated cut-off is given here; in the data, active = GI50 up to about 1.1 µM and inactive = higher.

Key:
Experiment in all cases: inhibition of tumour cell growth, NCI panel, 48 h
[1] = tested on: PC-3
[2] = tested on: UACC-257
[3] = tested on: HL-60
[4] = tested on: HOP-92
[5] = tested on: MDA-MB-231
[6] = tested on: TK-10
[7] = tested on: ACHN
[8] = tested on: NCI-H460
[9] = tested on: DU-145
[10] = tested on: SK-MEL-28
[11] = tested on: HCC 2998
[12] = tested on: K562
[13] = tested on: SR
[14] = tested on: SK-OV-3
[15] = tested on: HCT-116
[16] = tested on: Malme-3M
[17] = tested on: IGROV-1
[18] = tested on: BT-549
[19] = tested on: SF-268
[20] = tested on: OVCAR-8
[21] = tested on: SNB-75
[22] = tested on: NCI/ADR-RES
[23] = tested on: HT-29
[24] = tested on: LOX IMVI
[25] = tested on: SN12C
[26] = tested on: RPMI-8226
[27] = tested on: COLO 205
[28] = tested on: SK-MEL-2
[29] = tested on: MDA-N
[30] = tested on: OVCAR-5
[31] = tested on: NCI-H522
[32] = tested on: SK-MEL-5
[33] = tested on: U-251
[34] = tested on: MDA-MB-435
[35] = tested on: EKVX
[36] = tested on: M14
[37] = tested on: HOP-62
[38] = tested on: SW-620
[39] = tested on: UACC-62
[40] = tested on: CCRF-CEM
[41] = tested on: RXF 393
[42] = tested on: UO-31
[43] = tested on: 786-0
[44] = tested on: SF-295
[45] = tested on: MCF7
[46] = tested on: OVCAR-3
[47] = tested on: A498
[48] = tested on: NCI-H23
[49] = tested on: Hs-578T
[50] = tested on: MOLT-4
[51] = tested on: A549
[52] = tested on: CAKI-1
[53] = tested on: HCT-15
[54] = tested on: SF-539
[55] = tested on: OVCAR-4
[56] = tested on: KM12
[57] = tested on: SNB-19

With `O=P(O)(O)CN1CCNCCN(CP(=O)(O)O)CCNCC1` the GI50 [1] was 24.9 µM (inactive), the GI50 [2] was 41.8 µM (inactive) and the GI50 [3] was 2.79 µM (inactive). For the same compound, the GI50 [4] was 3.78 µM (inactive), the GI50 [5] was > 100 µM (inactive) and the GI50 [6] was > 62.2 µM (inactive). The GI50 [7] was > 100 µM (inactive), the GI50 [8] was 3.24 µM (inactive) and the GI50 [9] was > 100 µM (inactive). For the same compound, the GI50 [10] was > 100 µM (inactive), the GI50 [11] was 7.64 µM (inactive) and the GI50 [12] was 3.44 µM (inactive). The GI50 [13] was 1.79 µM (inactive), the GI50 [14] was 8.87 µM (inactive) and the GI50 [15] was 4.39 µM (inactive). For the same compound, the GI50 [16] was 20.9 µM (inactive), the GI50 [17] was 6.52 µM (inactive) and the GI50 [18] was > 100 µM (inactive). The GI50 [19] was > 100 µM (inactive), the GI50 [20] was 6.68 µM (inactive) and the GI50 [21] was > 51.6 µM (inactive). For the same compound, the GI50 [22] was 35.2 µM (inactive), the GI50 [23] was 3.95 µM (inactive) and the GI50 [24] was 15.7 µM (inactive). The GI50 [25] was > 100 µM (inactive), the GI50 [26] was 5.97 µM (inactive) and the GI50 [27] was 5.13 µM (inactive). The GI50 [28] was > 100 µM (inactive), the GI50 [29] was 13.5 µM (inactive) and the GI50 [30] was 10 µM (inactive). The GI50 [31] was 9.38 µM (inactive), the GI50 [32] was 4.76 µM (inactive) and the GI50 [33] was > 24.4 µM (inactive). The GI50 [34] was 12 µM (inactive), the GI50 [35] was > 95.9 µM (inactive) and the GI50 [36] was 26.1 µM (inactive). The GI50 [37] was > 100 µM (inactive), the GI50 [38] was 4.74 µM (inactive) and the GI50 [39] was 7.74 µM (inactive). For the same compound, the GI50 [40] was 3.52 µM (inactive), the GI50 [41] was > 100 µM (inactive) and the GI50 [42] was > 100 µM (inactive). The GI50 [43] was > 30.8 µM (inactive), the GI50 [44] was > 100 µM (inactive) and the GI50 [45] was 6.97 µM (inactive). For the same compound, the GI50 [46] was > 100 µM (inactive), the GI50 [47] was 8.36 µM (inactive) and the GI50 [48] was 10.1 µM (inactive). For the same compound, the GI50 [49] was > 100 µM (inactive), the GI50 [50] was 4.66 µM (inactive) and the GI50 [51] was 8.22 µM (inactive). For the same compound, the GI50 [52] was > 47.8 µM (inactive), the GI50 [53] was 4.2 µM and the GI50 [54] was 11.7 µM (inactive). For the same compound, the GI50 [55] was > 71.3 µM (inactive), the GI50 [56] was 6.84 µM (inactive) and the GI50 [57] was > 100 µM (inactive).
